Assay results from patent US11040963B2 (priority 2017, dated 2021).

Columns and labels:
[1] = biological target: HA H1 A/New Caledonia/20/99 (Influenza A virus (A/New Caledonia/20/1999(H1N1)), UniProt Q6WG00); assay: biochemical; settings: Competition binding (AlphaLISA), pIC50 H1 A/New Caledonia/20/99
[2] = tested on: H1N1 A/New Caledonia/20/99; assay: microbe, parasite or virus in culture; type: cell-based, influenza A virus; settings: Influenza A virus, H1N1, MDCK, 96 h, read-out: Virus neutralization assay (VNA), pEC50 H1N1 A/New Caledonia/20/99 (converted)
[3] = biological target: HA H5 A/Vietnam/1203/04 (Influenza A virus (A/Vietnam/1203/2004(H5N1)), UniProt Q5EP31); assay: biochemical; settings: Competition binding (AlphaLISA), pIC50 H5 A/Vietnam/1203/04
[4] = biological target: HA H1 A/California/07/09 (Influenza A virus (A/California/07/2009(H1N1)), UniProt C3W5X2); assay: biochemical; settings: Competition binding (AlphaLISA), pIC50 H1 A/California/07/09
H1N1 A/California/07/09 = assay: microbe, parasite or virus in culture; type: cell-based, influenza A virus; settings: Influenza A virus, H1N1, MDCK, 96 h, read-out: Virus neutralization assay (VNA), pEC50 H1N1 A/California/07/09 (converted)
in vitro = settings: dog, Cytotoxicity (pCC50) MDCK
H5N1 A/Vietnam/1203/04 = assay: microbe, parasite or virus in culture; type: cell-based, influenza A virus; settings: Influenza A virus, H5N1, MDCK, 96 h, read-out: Virus neutralization assay (VNA), pEC50 H5N1 A/Vietnam/1203/04, MDCK cells, 96 h, CPE by ATPlite (converted); average of repeats

SMILES	IC50 [1]	EC50 [2]	IC50 [3]	IC50 [4]	EC50 (H1N1 A/California/07/09)	CC50 (in vitro)	EC50 (H5N1 A/Vietnam/1203/04)
COc1ccc2nc(-c3cccc(C(=O)N4CCN(C(C(=O)NCCN)c5ccccc5)CC4)c3)sc2c1 (stereo not drawn) [Example 93]	63.1 nM	794 nM	631 nM	79.4 nM	3980 nM	15800 nM	7940 nM
COC(=O)C(C)(c1ccccc1)N1CCN(C(=O)c2cccc(-c3nc4ccc(OC)cc4s3)c2)CC1 (stereo not drawn) [Example 94]	50.1 nM	1000 nM	631 nM	79.4 nM	316 nM	2510 nM	7940 nM
Cc1nnc([C@@H](c2ccccc2)N2CCN(C(=O)c3cccc(-c4cc5ccccc5cn4)c3)CC2)o1 [Example 95]	158 nM	1000 nM	5010 nM	126 nM	794 nM	39800 nM	31600 nM
COCCNC(=O)C(c1ccccc1)N1CCN(C(=O)c2cccc(-c3nc4ccc(OC)cc4s3)c2)CC1 (stereo not drawn) [Example 97]	79.4 nM	1000 nM	631 nM	100 nM	1000 nM	10000 nM	3980 nM
COc1ccc2nc(-c3cccc(C(=O)N4CCN(C(c5ccccc5)c5noc(C)n5)CC4)c3)sc2c1 (stereo not drawn) [Example 98]	126 nM	1000 nM	2510 nM	251 nM	1260 nM	12600 nM	12600 nM
COCC(c1ccccc1)N1CCN(C(=O)c2cccc(-c3nc4ccc(OC)cc4s3)c2)CC1 (stereo not drawn) [Example 99]	158 nM	1000 nM	1260 nM	251 nM	1580 nM	> 50100 nM	> 50100 nM
COC(=O)[C@H](c1ccccc1)N1CCN(C(=O)c2cccc(-c3nc4cc(OC)ccc4o3)c2)CC1 [Example 100]	316 nM	1000 nM	25100 nM	501 nM	2000 nM	> 50100 nM	25100 nM
Cc1nnc(C(c2ccccc2)N2CCN(C(=O)c3cccc(-c4nc5ccncc5o4)c3)CC2)o1 (stereo not drawn) [Example 102]	251 nM	1000 nM	12600 nM	200 nM	2000 nM	> 50100 nM	> 50100 nM
CNC(=O)C(c1ccccc1)N1CCN(C(=O)c2cccc(-c3nc4ccc(OC)cc4s3)c2)CC1 (stereo not drawn) [Example 103]	126 nM	1000 nM	1000 nM	200 nM	2510 nM	31600 nM	15800 nM
CCCNC(=O)C(c1ccccc1)N1CCN(C(=O)c2cccc(-c3nc4ccc(OC)cc4s3)c2)CC1 (stereo not drawn) [Example 104]	200 nM	1000 nM	2000 nM	251 nM	2510 nM	7940 nM	10000 nM
O=C(c1cccc(-c2nc3cc(C(F)(F)F)ccc3o2)c1)N1CCN(C(c2ccccc2)c2nnco2)CC1 (stereo not drawn) [Example 107]	251 nM	1000 nM	20000 nM	398 nM	3160 nM	> 50100 nM	> 50100 nM
COc1ccc2nc(-c3cccc(C(=O)N4CCN(C(Cc5nnco5)c5ccccc5)CC4)c3)sc2c1 (stereo not drawn) [Example 108]	501 nM	1000 nM	25100 nM	1580 nM	5010 nM	> 50100 nM	> 50100 nM
CCc1nnc(C(c2ccccc2)N2CCN(C(=O)c3cccc(-c4nc5cc(C(F)(F)F)ccc5o4)c3)CC2)o1 (stereo not drawn) [Example 109]	158 nM	1260 nM	3980 nM	79.4 nM	501 nM	10000 nM	25100 nM
Cc1nnc([C@@H](c2ccccc2)N2CCN(C(=O)c3cccc(-c4ccc5ccccc5n4)c3)CC2)o1 [Example 112]	398 nM	1260 nM	6310 nM	501 nM	1580 nM	7940 nM	> 5010 nM
COC(=O)[C@@H](c1ccccc1)N1CCN(C(=O)c2cccc(-c3nc4cc(C(F)(F)F)ccc4o3)c2)[C@H](C(N)=O)C1 [Example 113]	631 nM	1580 nM	25100 nM	501 nM	1260 nM	> 50100 nM	> 50100 nM
COC(=O)C(c1ccccc1)N1CCN(C(=O)C2CCCN(c3nc4ccc(OC)cc4s3)C2)CC1 (stereo not drawn) [Example 115]	316 nM	1260 nM	7940 nM	251 nM	2000 nM	3980 nM	> 50100 nM
Cc1nc(C(c2ccccc2)N2CCN(C(=O)c3cccc(-c4nc5cc(C(F)(F)F)ccc5o4)c3)CC2)n[nH]1 (stereo not drawn) [Example 116]	398 nM	1580 nM	5010 nM	501 nM	1580 nM	50100 nM	> 50100 nM
COC(=O)[C@H](c1ccccc1)N1CCN(C(=O)c2cccc(-c3nc4cc(C(F)(F)F)ccc4o3)c2)[C@@H](C)C1 [Example 117]	100 nM	1260 nM	6310 nM	126 nM	2510 nM	> 50100 nM	31600 nM
CNC(=O)N(Cc1ccccc1)C1CCN(C(=O)c2cccc(-c3nc4ccc(OC)cc4s3)c2)CC1 [Example 118]	316 nM	1260 nM	25100 nM	251 nM	7940 nM	2000 nM	31600 nM
COC(=O)C(c1ccccc1)N1CCN(C(=O)c2ccnc(-c3nc4cc(C(F)(F)F)ccc4o3)c2)CC1 (stereo not drawn) [Example 119]	158 nM	1580 nM	2000 nM	158 nM	1000 nM	10000 nM	25100 nM
COC(=O)C(c1ccccc1)N1CCN(C(=O)c2cccc(-c3nc4ccc(OC)cc4[nH]3)c2)CC1 (stereo not drawn) [Example 121]	126 nM	1580 nM	1580 nM	200 nM	3160 nM	7940 nM	39800 nM
COC(=O)C(c1ccncc1)N1CCN(C(=O)c2cccc(-c3nc4ccc(OC)cc4s3)c2)CC1 (stereo not drawn) [Example 122]	200 nM	1580 nM	2510 nM	398 nM	3980 nM	10000 nM	12600 nM
COc1ccc2nc(-c3cccc(C(=O)N4CCN([C@@H](c5ccccc5)c5nnc(C)o5)CC4)c3)sc2c1 [Example 124]	79.4 nM	2000 nM	631 nM	63.1 nM	501 nM	15800 nM	3980 nM
Cc1nnc(C(c2ccccc2)N2CCN(C(=O)c3cccc(-c4nc5cc(Cl)ccc5o4)c3)CC2)o1 (stereo not drawn) [Example 125]	158 nM	2000 nM	12600 nM	158 nM	1580 nM	25100 nM	50100 nM
O=C(c1cccc(-c2nc3cc(C(F)(F)F)ccc3o2)c1)N1CCN(C(c2ccccc2)c2nnc(C3CC3)o2)CC1 (stereo not drawn) [Example 127]	251 nM	2000 nM	7940 nM	79.4 nM	2510 nM	> 50100 nM	20000 nM
Cc1nnc(C(c2ccccc2)N2CCN(C(=O)c3cccc(-c4nc5cccnc5o4)c3)CC2)o1 (stereo not drawn) [Example 129]	501 nM	2000 nM	31600 nM	631 nM	3980 nM	> 50100 nM	> 50100 nM
COc1ccc2nc(-c3cccc(C(=O)N4CCN(C5(c6ccccc6)CCN(C)C5=O)CC4)c3)sc2c1 (stereo not drawn) [Example 131]	3980 nM	2510 nM	39800 nM	3160 nM	1580 nM	20000 nM	> 50100 nM
COC(=O)C(c1ccccc1)N1CCCN(C(=O)c2cccc(-c3nc4ccc(OC)cc4s3)c2)CC1 (stereo not drawn) [Example 132]	631 nM	2510 nM	15800 nM	794 nM	39800 nM	> 50100 nM	> 50100 nM
Cn1nnc([C@@H](c2ccccc2)N2CCN(C(=O)c3cc(-c4nc5cc(OC(F)(F)F)ccc5o4)ccn3)CC2)n1 [Example 133]	10 nM	25.1 nM	251 nM	15.8 nM	63.1 nM	> 50100 nM	631 nM
Cc1nc([C@@H](c2ccccc2)N2CCN(C(=O)c3cc(-c4nc5cc(OC(F)(F)F)ccc5o4)ccn3)CC2)n[nH]1 [Example 134]	15.8 nM	251 nM	158 nM	39.8 nM	631 nM	> 50100 nM	3980 nM
